The values below come from patent US10072001B2, “Tank-binding kinase inhibitor compounds” (Gilead Sciences, Inc., priority 2014, dated 2018).

The target in one assay is TBK1 (Homo sapiens (Human), UniProt Q9UHD2). Briefly: TR-FRET kinase assay, TBK1. Particulars: read-out: TBK1-IC50; full length recombinant TBK1 2.5 nM, 2x Km ATP, 1 μM peptide, 240 min at 25° C.; geometric mean of minimum four determinations. (In TR-FRET formats the signal depends on donor and acceptor labels being close together.)
TBK1, sequence (Q9UHD2 whole entry): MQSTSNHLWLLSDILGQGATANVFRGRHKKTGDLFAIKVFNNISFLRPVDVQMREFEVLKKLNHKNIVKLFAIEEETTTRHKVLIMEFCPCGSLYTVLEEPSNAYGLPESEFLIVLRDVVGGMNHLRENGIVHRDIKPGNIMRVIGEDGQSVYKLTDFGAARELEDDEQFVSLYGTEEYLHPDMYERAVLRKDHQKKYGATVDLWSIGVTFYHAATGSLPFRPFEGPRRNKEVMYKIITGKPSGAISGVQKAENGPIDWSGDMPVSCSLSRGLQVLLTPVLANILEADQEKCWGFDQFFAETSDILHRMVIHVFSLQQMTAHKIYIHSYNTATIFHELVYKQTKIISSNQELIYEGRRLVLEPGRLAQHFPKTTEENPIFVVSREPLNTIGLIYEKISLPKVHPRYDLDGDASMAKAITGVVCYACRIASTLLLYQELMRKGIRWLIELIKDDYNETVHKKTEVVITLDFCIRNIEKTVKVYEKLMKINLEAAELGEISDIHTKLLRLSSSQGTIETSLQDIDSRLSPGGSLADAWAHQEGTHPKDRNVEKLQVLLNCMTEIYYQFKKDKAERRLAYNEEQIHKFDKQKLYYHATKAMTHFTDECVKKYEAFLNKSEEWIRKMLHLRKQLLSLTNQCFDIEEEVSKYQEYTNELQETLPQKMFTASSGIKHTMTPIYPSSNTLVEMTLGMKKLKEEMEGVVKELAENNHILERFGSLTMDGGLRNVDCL
A further assay has as its target IKKε (Homo sapiens (Human), UniProt Q14164). Briefly: TR-FRET kinase assay, IKKε. Format: biochemical. Particulars: full length recombinant IKKε 0.3 nM, 2x Km ATP, 1 μM peptide, 240 min at 25° C.; geometric mean of minimum four determinations. From the text: Biological Assay for TBK1 and IKKs:

Where only a bound is given, the exact number is not on record here.

IKKε, sequence (Q14164 whole entry): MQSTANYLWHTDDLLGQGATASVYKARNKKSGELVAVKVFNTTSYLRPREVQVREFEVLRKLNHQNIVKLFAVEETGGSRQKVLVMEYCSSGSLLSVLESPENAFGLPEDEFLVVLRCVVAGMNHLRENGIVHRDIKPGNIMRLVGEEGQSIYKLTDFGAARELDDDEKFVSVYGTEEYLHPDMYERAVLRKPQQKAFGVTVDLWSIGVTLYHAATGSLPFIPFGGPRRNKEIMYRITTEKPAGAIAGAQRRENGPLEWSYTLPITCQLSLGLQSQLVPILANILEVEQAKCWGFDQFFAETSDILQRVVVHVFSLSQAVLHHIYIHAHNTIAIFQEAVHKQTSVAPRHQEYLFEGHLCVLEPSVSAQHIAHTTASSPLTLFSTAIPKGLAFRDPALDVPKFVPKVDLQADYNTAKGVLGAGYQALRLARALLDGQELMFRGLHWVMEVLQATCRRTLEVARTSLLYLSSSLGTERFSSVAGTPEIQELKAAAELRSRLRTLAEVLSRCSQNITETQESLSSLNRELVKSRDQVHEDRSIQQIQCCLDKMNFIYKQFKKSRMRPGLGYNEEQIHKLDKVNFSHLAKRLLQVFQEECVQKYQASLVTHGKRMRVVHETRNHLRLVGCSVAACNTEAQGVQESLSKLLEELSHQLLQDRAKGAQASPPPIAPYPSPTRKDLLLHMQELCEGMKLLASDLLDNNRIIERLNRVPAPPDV
Description for TBK1: Enzymatic activity of IKKε and TBK1 was measured using a homogeneous time resolved fluorescence resonance energy transfer (TR-FRET) assay that monitors enzyme dependent phosphorylation of a biotinylated serine/threonine peptide substrate. […] TBK1 and IKKs were expressed and purified as full length recombinant proteins. Detection reagents for the assay were purchased from Cisbio. […] After an assay reaction time of 240 minutes at 25° C., reactions were terminated with EDTA.
Amount of phosphorylated peptide was determined by the addition of 125 nM streptavidin XL665 and europium cryptate labeled anti-phospho monoclonal antibody and the resulting TR-FRET signal was recorded on an Envision plate reader (Ex: 340 nm; Em: 615/665 nm; 100 μs delay and 200 μs read window). […] All IC50 values represent geometric mean values of a minimum of four determinations.

A word on the IC50: it is the concentration needed to halve the response being measured. Consider `N#Cc1cc(-c2ccnc3[nH]c(-c4cccnc4)cc23)ccc1OC1CCOCC1` [Example 7, 5-(2-(pyridin-3-yl)-1H-pyrrolo[2,3-b]pyridin-4-yl)-2-((tetrahydro-2H-pyran-4-yl)oxy)benzonitrile], for which the 50% inhibitory concentration (IC50) was found to be 11.8 nM at TBK1 and 17 nM on IKKε.

In the case of `CN(C)Cc1ccc(-c2nc3c(-c4ccc(OC5CCN(C(=O)C(F)F)CC5)c(C#N)c4)ncnc3[nH]2)cc1` [Example 267, 2-((1-(2,2-difluoroacetyl)piperidin-4-yl)oxy)-5-(8-(4-((dimethylamino)methyl)phenyl)-9H-purin-6-yl)benzonitrile], the IC50 at TBK1 and at IKKε was 1000 nM in each case.

Turning to `N#Cc1cc(-c2ncnc3[nH]c(-c4ccc(N5CCN(CC(F)F)CC5)cc4)cc23)ccc1OC1CCNCC1` [Example 265, 5-(6-(4-(4-(2,2-difluoroethyl)piperazin-1-yl)phenyl)-7H-pyrrolo[2,3-d]pyrimidin-4-yl)-2-(piperidin-4-yloxy)benzonitrile], the IC50 amounted to 16.2 nM on TBK1 and 58.7 nM at IKKε.

Consider `N#Cc1cc(-c2ccnc3[nH]c(-c4ccc(N5CCOCC5)cc4)cc23)ccc1N1CCCC1=O` [Example 13, 5-(2-(4-morpholinophenyl)-1H-pyrrolo[2,3-b]pyridin-4-yl)-2-(2-oxopyrrolidin-1-yl)benzonitrile], for which the concentration for half-maximal inhibition (IC50) at TBK1 came out at 24.9 nM; on IKKε, 182 nM.

As to `N#Cc1cc(-c2ncnc3[nH]c(-c4ccc(N5CCOCC5)cc4)nc23)ccc1OC1CCN(C(=O)CO)CC1` [Example 205, 2-((1-(2-hydroxyacetyl)piperidin-4-yl)oxy)-5-(8-(4-morpholinophenyl)-9H-purin-6-yl)benzonitrile], the values for the IC50 at TBK1 and on IKKε were 2.07 nM and 4.71 nM, respectively.

Consider `N#Cc1cc(-c2ncnc3[nH]c(-c4ccc(Cl)cc4)cc23)ccc1OC1CCN(C(=O)CO)CC1` [Example 127, 5-(6-(4-chlorophenyl)-7H-pyrrolo[2,3-d]pyrimidin-4-yl)-2-((1-(2-hydroxyacetyl)piperidin-4-yl)oxy)benzonitrile], for which the half-inhibitory concentration (IC50) turned out to be 4.64 nM on TBK1 and 9.58 nM at IKKε.

For the compound `N#Cc1cc(-c2ncnc3[nH]c(-c4ccc(C(=O)N5CCCC5)cc4)cc23)ccc1OC1CCN(C(=O)CO)CC1` [Example 162, 2-((1-(2-Hydroxyacetyl)piperidin-4-yl)oxy)-5-(6-(4-(pyrrolidine-1-carbonyl)phenyl)-7H-pyrrolo[2,3-d]pyrimidin-4-yl)benzonitrile], the half-inhibitory concentration (IC50) turned out to be 1.48 nM at TBK1 and 2.68 nM on IKKε.

On to `CC(C)(C)OC(=O)N1CCC(Oc2ccc(-c3ccnc4[nH]c(-c5ccc(N6CCOCC6)cc5)cc34)cc2C#N)CC1` [Example 21, tert-butyl 4-(2-cyano-4-(2-(4-morpholinophenyl)-1H-pyrrolo[2,3-b]pyridin-4-yl)phenoxy)piperidine-1-carboxylate], for which the IC50 at TBK1 is 696 nM; at IKKε, greater than 1000 nM.

On to `Cc1cc(N2CCOCC2)ccc1-c1cc2c(-c3ccc(OC4CCN(C(=O)CO)CC4)c(C#N)c3)ncnc2[nH]1` [Example 121, 2-((1-(2-hydroxyacetyl)piperidin-4-yl)oxy)-5-(6-(2-methyl-4-morpholinophenyl)-7H-pyrrolo[2,3-d]pyrimidin-4-yl)benzonitrile], for which the figures for the concentration for half-maximal inhibition (IC50) on TBK1 and on IKKε were 1.28 nM and 4.4 nM, respectively.

In the case of `N#Cc1cc(-c2ccnc3[nH]c(-c4cc[nH]c(=O)c4)cc23)ccc1OC1CCOCC1` [Example 217, 5-(2-(2-oxo-1,2-dihydropyridin-4-yl)-1H-pyrrolo[2,3-b]pyridin-4-yl)-2-((tetrahydro-2H-pyran-4-yl)oxy)benzonitrile], the half-inhibitory concentration (IC50) on TBK1 stood at 19.3 nM; on IKKε, 34.7 nM.

As for `N#Cc1cc(-c2ncnc3[nH]c(-c4ccc(C5CCN(CC(F)F)CC5)cc4)nc23)ccc1OC1CCN(C=O)CC1` [Example 258, 5-(8-(4-(1-(2,2-difluoroethyl)piperidin-4-yl)phenyl)-9H-purin-6-yl)-2-((1-formylpiperidin-4-yl)oxy)benzonitrile], the half-inhibitory concentration (IC50) stood at 6.4 nM at TBK1 and 12.9 nM on IKKε.

As for `CN(C)C(=O)/C=C/c1cc2c(-c3ccc(OC4CCOCC4)c(C#N)c3)ccnc2[nH]1` [Example 179, 3-(4-(3-cyano-4-((tetrahydro-2H-pyran-4-yl)oxy)phenyl)-1H-pyrrolo[2,3-b]pyridin-2-yl)-N,N-dimethylacrylamide], the IC50 on TBK1 was found to be 103 nM; at IKKε it was 69.8 nM.

For `N#Cc1cc(-c2ncnc3[nH]c(-c4ccc(N5CCN(C6COC6)CC5)cc4)nc23)ccc1OC1CCOCC1` [Example 232, 5-(8-(4-(4-(oxetan-3-yl)piperazin-1-yl)phenyl)-9H-purin-6-yl)-2-((tetrahydro-2H-pyran-4-yl)oxy)benzonitrile], the IC50 at TBK1 is 4.49 nM; at IKKε it was 15.5 nM.

With `N#Cc1cc(-c2ncnc3[nH]c(-c4ccc(N5CCOCC5)cc4)cc23)ccc1OC1CCS(=O)(=O)CC1` [Example 240, 2-((1,1-dioxidotetrahydro-2H-thiopyran-4-yl)oxy)-5-(6-(4-morpholinophenyl)-7H-pyrrolo[2,3-d]pyrimidin-4-yl)benzonitrile], the results for the IC50 at TBK1 and at IKKε were 3.82 nM and 33.8 nM, respectively.

For the compound `CC(C)(C)OC(=O)N1CC[C@@H](Oc2ccc(-c3ccnc4[nH]c(-c5ccc(N6CCOCC6)cc5)cc34)cc2C#N)C1` [Example 17, (R)-tert-butyl 3-(2-cyano-4-(2-(4-morpholinophenyl)-1H-pyrrolo[2,3-b]pyridin-4-yl)phenoxy)pyrrolidine-1-carboxylate], the IC50 came to 146 nM on TBK1 and 394 nM on IKKε.

Take `N#Cc1cc(-c2ccnc3[nH]c(-c4ccc(N5CCOCC5)cc4)nc23)ccc1OC1CCOCC1` [Example 305, 5-(2-(4-morpholinophenyl)-3H-imidazo[4,5-b]pyridin-7-yl)-2-((tetrahydro-2H-pyran-4-yl)oxy)benzonitrile]: the IC50 on TBK1 came to 3.2 nM; at IKKε, 10.8 nM.
